Where “and” joins values, the source holds several entries; their conditions need not be identical. Equal entries are not always repeated. Structures can show the parent of a compound that is named as a salt. Where two headings read alike, the source gives them in different places.
How the values were obtained:
[1] = system: erythroid progenitor cells (EPCs); test: Fetal hemoglobin (HbF) ELISA in day 7 erythroid progenitor cells; assay type: cell-based, human; details: Homo sapiens, Erythroid progenitor cell, HbF ELISA, day 7 EPCs, 5 days; read-out: EPC ELISA (pEC50 category) (converted)
Protocol: Day 7 EPCs were cultured in duplicate plates with serially diluted Compound A for 5 days at 37° C. Wells were then analyzed for either induction of fetal hemoglobin (HbF,HbF ELISA) or cell growth (Cell Titer-Glo). In both cases, signal was normalized to vehicle-control treated cells.
Culture, Expansion, and Characterization of Day 7 Erythroid Progenitor Cells (EPC)s
All donors provided written informed consent for use of their samples, and the collection and use of the samples received institutional review board approval. All cryopreserved human bone marrow CD34+ cells used here were obtained from AlICells (Emeryville, Calif.) and were generally from different donors. The CD34+ cells were cultured to generate EPCs at day 7. Briefly, 1 million cells were cultured in 5% CO2, 5% O2 at 37° C. in H3000 Stemspan media (StemCell Technologies Vancouver, BC, Canada) supplemented with 2 mM L-glutamine, 40 μg/mL human low-density lipoproteins (StemCell Technologies), 10 ng/mL recombinant human (rh) interleukin IL-3 (R&D Systems, Minneapolis, Minn.), 100 ng/mL rh stem cell factor (R&D Systems), and 0.5 U/mL rh erythropoietin (Invitrogen, Grand Island, N.Y.). Cells were split and refed on day 4 with complete culture media described above and harvested on day 7 for evaluation of erythroid marker expression and assessment of γ-globin induction. Day 7 EPCs were then frozen in liquid nitrogen at 5 to 10 million cells/mL in 95% fetal bovine serum (FBS; Invitrogen) with 5% DMSO for subsequent use.
At the time of compound treatment, frozen day 7 EPCs prepared as described above were thawed, washed once and re-suspended in complete culture media as described above with the exception of an increase of rhEPO to 3 U/mL. Cells were counted and diluted to […] for plating into assay plates. Cells were then dispensed, at 30 μL per well with Multidrop™ Combi Reagent Dispenser (Thermo Scientific), into 384-well cell culture plates into which test compounds were pre-dispensed at 100 nL/well. Black Clear Bottom (Greiner Bio-One; 781090) and White (Greiner Bio-One; 781080) plates were used for ELISA and Cell Titer-Glo assays, respectively. The final cell density in the assays is 1,000 cells per well, with final compound concentrations between 33 nM (highest) and […] (lowest) for the 22-points serial dilution.
Fetal Hemoglobin (HbF) ELISA
Coating anti-HbF Ab (Bethyl Lab; cat. A80-136A) was diluted by 100-fold in the coating buffer (0.05 M carbonate-bicarbonate, pH 9.6), and then 20 μL/well was added to a 384-well MaxiSorp ELISA plate (Thermo Fisher; cat. 464718). After 1 hour incubation at room temperature, the plates were washed twice with ELISA washing buffer (50 mM Tris, 0.05% Tween 20, pH 8.0) with an EL406 plate washer (BioTek, Winooski, Vt.). Then, 40 μL/well of blocking buffer consisting of 50 mM Tris and 1% BSA (pH 8.0) was added to the plate and stored at 4° C. with cover sheet overnight, or until time of the assay. The coated ELISA plates were stable for up to 30 days at 4° C. On the day of assay, the plates were washed twice with ELISA washing buffer prior to addition of cell lysate.
After 5 days at 37° C. with 5% CO2 cell culture plates for ELISA assay were put into −80° C. freezer for a minimum of 2 hours. After thawing at room temperature, 30 μL of cell lysis buffer (Invitrogen; cat. FNN0011, supplemented with 1× protease inhibitor) was added to each well and the resulting cell lysate was mixed eight times with a Cybi-Well (Jena, Germany) pipettor. Following the mixing procedure, 20 μL/well of lysate was transferred to the coated ELISA plates described above followed by a 1 hour incubation at room temperature. The ELISA assay plates were washed three times with ELISA wash buffer. 20 μL per well of 1:75,000 to 100,000 diluted horseradish peroxidase (HRP) conjugate detection antiHbF Ab (Bethyl Labs; cat. A80-136P, diluted in 50 mM Tris [pH 8.0], 1% BSA, 0.05% Tween-20) was then added. […]

DNMT1 = DNMT1 (Homo sapiens, UniProt P26358); test: DNMT1 biochemical activity, breaklight assay and/or SPA assay
Protocol: DNMT1 breaklight in vitro assays were conducted in a total volume of 50 μl in a standard 384 well format, using black non-binding surface microplates (Corning 3575). […] Negative control wells used 5 μl of DNMT1 and 5 μl of oligonucleotide but 0 μM SAM. All reagents were made up in 1× assay buffer (20 mM Tris pH 6.8, 25 mM NaCl, 0.5 mM MgCl2, 0.01% Triton X100 and 1 mM DTT). The reaction was incubated at 26° C. for 45 min and then stopped with the addition of 40 μl detection reagent. Detection reagent, made up in 1× Gla assay buffer (20 mM Tris pH 8.0, 80 mM NaCl, 0.75 mM MgCl2, 0.01% Triton X100 and 1 mM DTT) has a final concentration of 100 μM SAH (Sigma #A9384) and 0.0008 units/μl Gla1 restriction endonuclease (Sibenzyme #E494). Following addition of the detection reagent the plate was incubated in the dark at room temperature for 5 hr. Fluorescence intensity was then measured on the PHERAstar FS (BMG Labtech) at Ex 485 nm and Em 520 nm, with a gain of 400 and an integration time of 100 ms.
Biochemical activity of DNMT1 analyzed using SPA technology. Plates (Griener 784075) were pre-stamped with 100 nL/well of compound (11-point, 3-fold serial dilution). […] Low control wells contained 5 μL of buffer instead of enzyme. Following a 40 minute incubation, the reaction was quenched upon the addition of 10 μL of stop mixture containing 1 mM SAM (Sigma A7007) and 2 mg/mL PEI beads (Perkin Elmer RPNQ0098). Plates were sealed, centrifuged for 1 min and then read on a Viewlux (Perkin Elmer) using the 613 nm emission filter/300 s read time following a 30 minute dark adapt. Assay conditions prior to quench consisted of 40 nM DNMT1 (601-1600, produced internally), 100 nM 3H-SAM (American Radiolabeled Chemicals ART 0288), 900 nM SAM (New England BioLabs B9003S) and 200 nM hemi methylated DNA oligonucleotide (synthesized at Integrated DNA Technologies, 5′-[…]-3′) in 50 mM HEPES (pH 8.0), 2 mM MgCl2, 1 mM DTT, 0.01% NP-40 and 0.01% BSA.
Comments • 1. […] Where a field is empty, the compound was not tested in that assay.

[2] = binned activity in either the breaklight or the SPA assay, read-out: DNMT1 BioChemical (pIC50 category) (converted)
[3] = binned activity in either the breaklight or the SPA assay

DNMT1, sequence (P26358 whole entry, looked up): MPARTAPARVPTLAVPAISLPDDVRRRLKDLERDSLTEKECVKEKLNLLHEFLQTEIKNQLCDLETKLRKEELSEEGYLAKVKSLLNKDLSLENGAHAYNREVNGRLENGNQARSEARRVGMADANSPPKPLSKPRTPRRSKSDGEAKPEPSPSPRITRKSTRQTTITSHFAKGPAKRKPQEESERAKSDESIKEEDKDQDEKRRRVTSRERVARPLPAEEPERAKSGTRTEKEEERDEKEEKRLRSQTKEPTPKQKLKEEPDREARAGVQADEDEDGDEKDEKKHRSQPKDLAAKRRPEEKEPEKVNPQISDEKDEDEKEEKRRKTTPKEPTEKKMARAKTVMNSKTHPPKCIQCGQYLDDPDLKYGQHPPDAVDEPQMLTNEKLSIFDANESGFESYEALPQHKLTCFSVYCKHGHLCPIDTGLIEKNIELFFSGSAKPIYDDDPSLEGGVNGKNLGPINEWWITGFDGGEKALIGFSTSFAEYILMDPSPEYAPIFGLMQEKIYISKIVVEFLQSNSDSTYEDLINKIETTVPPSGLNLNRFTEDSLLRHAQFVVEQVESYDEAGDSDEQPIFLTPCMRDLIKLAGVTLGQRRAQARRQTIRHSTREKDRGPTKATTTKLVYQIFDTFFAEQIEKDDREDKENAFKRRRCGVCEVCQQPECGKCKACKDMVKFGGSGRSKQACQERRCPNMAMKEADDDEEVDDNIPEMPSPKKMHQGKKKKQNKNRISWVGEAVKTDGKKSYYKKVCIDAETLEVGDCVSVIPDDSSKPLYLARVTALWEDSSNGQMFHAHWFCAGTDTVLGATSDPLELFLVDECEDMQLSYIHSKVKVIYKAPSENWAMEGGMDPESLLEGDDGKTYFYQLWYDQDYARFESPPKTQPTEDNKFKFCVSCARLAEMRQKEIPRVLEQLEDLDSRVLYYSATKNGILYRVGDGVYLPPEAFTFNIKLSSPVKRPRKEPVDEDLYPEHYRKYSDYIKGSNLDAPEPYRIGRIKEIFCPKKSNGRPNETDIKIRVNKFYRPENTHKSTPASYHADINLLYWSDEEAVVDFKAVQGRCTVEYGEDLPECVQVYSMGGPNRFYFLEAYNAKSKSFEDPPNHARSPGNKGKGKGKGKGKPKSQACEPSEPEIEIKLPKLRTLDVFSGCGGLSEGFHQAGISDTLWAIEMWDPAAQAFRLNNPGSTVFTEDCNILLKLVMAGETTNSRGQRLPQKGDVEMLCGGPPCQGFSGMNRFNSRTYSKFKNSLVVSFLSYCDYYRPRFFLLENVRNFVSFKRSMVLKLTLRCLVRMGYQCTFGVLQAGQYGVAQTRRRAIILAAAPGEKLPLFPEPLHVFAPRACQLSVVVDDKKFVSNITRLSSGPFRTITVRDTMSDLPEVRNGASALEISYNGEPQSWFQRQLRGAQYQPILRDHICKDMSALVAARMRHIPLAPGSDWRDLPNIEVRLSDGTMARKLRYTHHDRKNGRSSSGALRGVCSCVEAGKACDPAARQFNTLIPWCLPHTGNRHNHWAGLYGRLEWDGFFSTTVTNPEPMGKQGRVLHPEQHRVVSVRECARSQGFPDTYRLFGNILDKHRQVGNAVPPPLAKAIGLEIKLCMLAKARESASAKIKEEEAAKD

Row | EC50 [1] [nM] | IC50 (DNMT1; [2]) [nM] | IC50 (DNMT1; breaklight assay and/or SPA assay, repeated experimental runs, read-out: average pIC50 against DNMT1 (converted)) | DNMT1 BioChemical (pIC50 category) (DNMT1; [3]) | SMILES
1 | < 316 | 316 to 1000 | 316 to 1000 nM and 398 nM | – | CCc1c(C#N)c(SCc2ccc(CNC(=O)CN)cc2)nc(N2CC[C@@H](N)[C@@H](F)C2)c1C#N (relative stereo) [Example 546, rel-2-amino-N-(4-(((6-(cis-4-amino-3-fluoropiperidin-1-yl)-3,5-dicyano-4-ethylpyridin-2-yl)thio)methyl)benzyl)acetamide]
2 | < 316 | < 316 | – | – | CCc1c(C#N)c(S[C@@H](C(N)=O)c2ccccc2)nc(N(C)CC(N)=O)c1C#N (single isomer, unassigned) [Example 413, 2-((6-((2-amino-2-oxoethyl)(methyl)amino)-3,5-dicyano-4-ethylpyridin-2-yl)thio)-2-phenylacetamide]
3 | < 316 | – | – | D (Category D: ≥6.5) | CCc1c(C#N)c(S[C@@H](C(N)=O)c2ccccc2)nc(N(C)CCO)c1C#N (single isomer, unassigned) [Example 431]
4 | < 316 | – | – | D (Category D: ≥6.5) | CCc1c(C#N)c(SC(C(N)=O)c2ccccc2)nc(N2CCC(N3CCC[C@@H]3CO)CC2)c1C#N (single isomer, unassigned) [Example 464]
5 | < 316 | < 316 | – | – | CCc1c(C#N)c(SC(C(N)=O)c2ccccc2)nc(N2CC[C@@H](NC(=O)OC(C)(C)C)[C@@H](F)C2)c1C#N (single isomer, unassigned) [Example 534, rel-tert-butyl (cis)-1-(6-((2-amino-2-oxo-1-phenylethyl)thio)-3,5-dicyano-4-ethylpyridin-2-yl)-3-fluoropiperidin-4-yl)carbamate]
6 | < 316 | – | – | D (Category D: ≥6.5) | CCc1c(C#N)c(S[C@H](C(N)=O)c2ccccc2)nc(N2CCC(C)(N)CC2)c1C#N (single isomer, unassigned) [Example 608, 2-((6-(4-amino-4-methylpiperidin-1-yl)-3,5-dicyano-4-ethylpyridin-2-yl)thio)-2-phenylacetamide]
7 | < 316 | – | – | – | CCc1c(C#N)c(SC(C(N)=O)c2ccccc2)nc(N2CCC(N)CC2)c1C#N (stereo not drawn) [Example 143, 2-((6-(4-Aminopiperidin-1-yl)-3,5-dicyano-4-ethylpyridin-2-yl)thio)-2-phenylacetamide]
8 | 316 to 1000 | – | – | – | [2H]C(Sc1nc(N(C)C)c(C#N)c(CC)c1C#N)(C(N)=O)c1ccccc1 (stereo not drawn) [Example 305, 2-((3,5-Dicyano-6-(dimethylamino)-4-ethylpyridin-2-yl)thio)-2-phenylacetamide-2-d]
9 | 316 to 1000 | – | – | – | [2H][C@](Sc1nc(N(C)C)c(C#N)c(CC)c1C#N)(C(N)=O)c1ccccc1 [Example 308, (R)-2-((3,5-Dicyano-6-(dimethylamino)-4-ethylpyridin-2-yl)thio)-2-phenylacetamide-2-d]
10 | 316 to 1000 | – | – | – | [2H]C([2H])([2H])N(c1nc(SC(C(N)=O)c2ccccc2)c(C#N)c(CC)c1C#N)C([2H])([2H])[2H] (stereo not drawn) [Example 404, 2-((3,5-Dicyano-6-(dimethylamino-d6)-4-ethylpyridin-2-yl)thio)-2-phenylacetamide]
11 | < 316 | – | – | – | CCc1c(C#N)c(S[C@@H](C(N)=O)c2ccccc2)nc(N2CCC(N)CC2)c1C#N [Example 412, (R)-2-((6-(4-aminopiperidin-1-yl)-3,5-dicyano-4-ethylpyridin-2-yl)thio)-2-phenylacetamide, Hydrochloride]
12 | < 316 | – | – | – | CCc1c(C#N)c(SC(C(N)=O)c2ccccc2)nc(N2CCC(NCC3(C)CCC3)CC2)c1C#N (stereo not drawn) [Example 466, 2-((3,5-dicyano-4-ethyl-6-(4-(((1-methylcyclobutyl)methyl)amino)piperidin-1-yl)pyridin-2-yl)thio)-2-phenylacetamide]
13 | < 316 | – | – | – | CCc1c(C#N)c(S[C@H](C(N)=O)c2ccccc2)nc(N2CCC(N)CC2)c1C#N [Example 605, (S)-2-((6-(4-aminopiperidin-1-yl)-3,5-dicyano-4-ethylpyridin-2-yl)thio)-2-phenylacetamide, Hydrochloride]
14 | < 316 | – | – | – | CCc1c(C#N)c(SC(C(N)=O)c2ccccc2)nc(N(C)CC(=O)N2CC[C@@H](CO)C2)c1C#N (stereo partly drawn) [Example 652, 2-((3,5-dicyano-4-ethyl-6-((2-((R)-3-(hydroxymethyl)pyrrolidin-1-yl)-2-oxoethyl)(methyl)amino)pyridin-2-yl)thio)-2-phenylacetamide]

Row | SMILES | EC50 [1] [nM] | IC50 (DNMT1; [2]) [nM] | IC50 (DNMT1; breaklight assay and/or SPA assay, repeated experimental runs, read-out: average pIC50 against DNMT1 (converted)) | DNMT1 BioChemical (pIC50 category) (DNMT1; [3])
15 | CCc1c(C#N)c(SC(C(N)=O)c2ccccc2)nc(N2CC[C@@H](N)[C@H](F)C2)c1C#N (relative stereo) [Example 508, rel-2-((6-(trans)-4-amino-3-fluoropiperidin-1-yl)-3,5-dicyano-4-ethylpyridin-2-yl)thio)-2-phenylacetamide] | < 316 | < 316 | – | –
16 | CCc1c(C#N)c(SC(C(N)=O)c2ccccc2)nc(N2CC[C@@H](N)[C@@H](F)C2)c1C#N (relative stereo) [Example 545, rel-2-((6-cis-4-amino-3-fluoropiperidin-1-yl)-3,5-dicyano-4-ethylpyridin-2-yl)thio)-2-phenylacetamide] | < 316 | < 316 | – | –
17 | CCc1c(C#N)c(S[C@H](C(N)=O)c2ccc(F)cc2)nc(N2CCC(N(C)C)CC2)c1C#N (single isomer, unassigned) [Example 465, 2-((3,5-dicyano-6-(4-(dimethylamino)piperidin-1-yl)-4-ethylpyridin-2-yl)thio)-2-(4-fluorophenyl)acetamide, Formic acid salt] | < 316 | – | – | D (Category D: ≥6.5)
